Results as given in article PMC10700347, “Semisynthesis of 5-O-ester derivatives of renieramycin T and their cytotoxicity against non-small-cell lung cancer cell lines” (Scientific Reports, 2023).
Read-outs that look alike come from different tables or passages of the source.

How the values were obtained:
[1] = test system: dermal papilla (DP) cell line; experiment: MTT cell viability on normal cell line DP; type: cell-based; conditions: 72 h
Protocol: (§1) DP and BEAS-2B were seeded into 96-well plates at densities of 1 × 10^4 cells per well, while HaCaT cells were seeded at densities of 5 × 10^3 cells per well. The cells were allowed to adhere for 24 h. Subsequently, the cells were treated with various concentrations of compounds 3a–3o, 4a, and 4b at 72 h for DP cells and at 24 h for HaCaT and BEAS-2B cells. After the treatment period, cells were incubated with 0.5 mg/ml of MTT for 2 h. The resulting MTT product was measured at 570 nm using a spectrophotometric microplate reader. Cell viability was calculated by comparing the optical density (OD) measurements to those of the untreated control, and the results were expressed as a percentage.

[2] = test system: H460 NSCLC cells; experiment: Hoechst 33342/PI nuclear co-staining apoptosis and accidental necrosis assay, H460; type: cell-based, human; conditions: cisplatin-sensitive H460, 7 h, 0–20 µM
Protocol: (§2) The anti-proliferative activity of compounds 1 and 3b against H292 and H460 cells were assessed across a range of concentrations (0–20 µM) under treatment at 10 and 24 h. […] The cytotoxic effect of 3b was closely resembled that of the parental compound 1 after 24 h treatment. According to their cytotoxic profiles at short treatment duration, the NSCLC cell lines were treated with various concentrations (0, 0.1, 1, 5, 10, and 20 µM) of compounds 1 and 3b, followed by Hoechst 33342 and PI staining to visualize morphological changes by fluorescence microscopy (Fig. 4C–F). The bright blue fluorescence of Hoechst 33342 indicated apoptosis, characterized by DNA condensation and fragmentation. In contrast, the red fluorescence emitted by propidium iodide (PI) indicated necrotic cell death. The percentage of apoptotic and necrotic cells was calculated based on the stained image.
(§3) NSCLC cells (H292 and H460) were seeded into a 96-well plate at a density of 1 × 10^4 cells/well for 24 h. Subsequently, the cells were treated with several concentrations of compounds 1 and 3b (0–20 µM) for 7 h. […] Visualization and imaging of the stained cells were carried out using a fluorescence microscope (Nikon ECLIPSE Ts2, Tokyo, Japan). […] The percentage of cell death was analyzed and reported.

[3] = test system: human keratinocyte (HaCaT) cell line; experiment: MTT cell viability on normal cell line HaCaT; type: cell-based; conditions: Homo sapiens, 24 h, read-out: IC50 ± S.D. HaCaT
Protocol: as §1

[4] = test system: H460 NSCLC cells; experiment: Annexin V-FITC/PI double staining flow cytometry, H460; type: cell-based, human; conditions: H460, 7 h; statement for 1 at 20 µM
Protocol: (§4) Apoptosis cell death was investigated following the manufacturer's protocol (ImmunoTools, Friesoythe, Germany) using FITC–labeled Annexin V/PI. Treated cells was cultured overnight in 24-well plates at a density of 5 × 10^4 cells/well. Subsequently, cells were treated with various concentrations of 1, and 3b (0, 0.1, 1, 5, 10, and 20 µM) for 7 h. After treatment, cells were collected, washed with cold PBS, and then suspended in binding buffer. Each cell suspension was stained with 2.5 µL of annexin V-FITC and 1 µL of PI. The mixture was vortexed, then incubated for 15 min at room temperature. Guava easyCyte flow cytometer (EMD Millipore, Hayward, CA, USA) was utilized to detect live, apoptotic, and necrotic cells. The modes of cell death were classified as necrotic (PI+), and apoptotic cell death, divided into early apoptotic (PI (-) Annexin-V (+)) and late apoptotic (PI (+) Annexin-V (+)).

[5] = test system: H292 NSCLC cells; experiment: Hoechst 33342/PI nuclear co-staining apoptosis and accidental necrosis assay, H292; type: cell-based, human; conditions: cisplatin-resistant H292, 7 h, 0–20 µM; statement for 1 at the highest concentration (20 µM)
Protocol: as §2, §3

[6] = test system: H292 NSCLC cells; experiment: Annexin V-FITC/PI double staining flow cytometry, H292; type: cell-based, human; conditions: H292, 7 h; statement for 1 at 20 µM
Protocol: as §4

[7] = test system: H292 non-small-cell lung cancer cell line; experiment: cells; type: cell-based; conditions: Homo sapiens, NCI-H292, H292, MTT
Protocol: (§5) The in vitro cytotoxicity of all the semisynthesized esters and their precursors against H292 and H460 human NSCLC cell lines was analyzed based on the mitochondrial dehydrogenase activity via the MTT assay[43] (Table 1). The compounds were tested at doses of 1–250 nM. Cisplatin and doxorubicin, which are the standard chemotherapeutic drugs for the treatment of NSCLC, were used as positive controls. […] However, the extended use of 1 is limited by the concerns for unwanted necrosis, which is an unprogrammed form of cell death caused by the presence of two quinone moieties. […] The IC50 values of the 5-O-ester derivatives 3a, 3b, 3d, 3h, 3i, and 3k were in the same range as the mother compound 1.
(§6) The in vitro cytotoxicity of compounds 3a–3o, 4a, and 4b was determined against the H292 and H460 NSCLC cell lines by the MTT colorimetric assay. Each compound was dissolved in DMSO to prepare a 10 mM stock solution. Both the H292 and H460 cells were cultured in RPMI 1640 medium supplemented with 2 mM L-glutamine, 10% FBS, and 100 units/mL of penicillin–streptomycin at 37 °C under 5% CO2. The NSCLC cells were trypsinized and seeded with a density of 5 × 10^3 cells/well in a 96-well plate, followed by overnight incubation. Serial dilutions of the test compounds ranging from 1 to 250 nM were prepared in the presence of DMSO (< 0.2% v/v). […] After incubation, formazan crystals were solubilized by adding 100 µL of DMSO, and their absorbance was measured at 570 nm by a spectrophotometric microtiter plate reader (PerkinElmer Victor 3 1420 Multilabel Plate Counter). Cell viability was calculated as the percentage of nontreated control cells. The mean IC50 values were obtained from three independent experiments. Each experiment was conducted in triplicate with at least five concentrations of the tested compounds. The GraphPad Prism software (version 5) was used to calculate the average IC50 and standard deviation (S.D.) values for each experiment. Cisplatin and doxorubicin were used as the positive controls, while 0.2% DMSO served as the negative control.

[8] = test system: H460 non-small-cell lung cancer cell line; experiment: cells; type: cell-based; conditions: Homo sapiens, NCI-H460, H460, MTT
Protocol: as §5, §6

[9] = test system: non-tumorigenic bronchial epithelial (BEAS-2B) cell line; experiment: MTT cell viability on normal cell line BEAS-2B; type: cell-based; conditions: Homo sapiens, BEAS-2B normal cell line, 24 h, read-out: IC50 ± S.D. BEAS-2B
Protocol: as §1

[10] = 10 h, 0–20 µM, read-out: IC50 ± S.D. H292 10 h
[11] = 24 h, 0–20 µM, read-out: IC50 ± S.D. H292 24 h
[12] = 72 h, read-out: IC50 ± S.D. H292
[13] = 10 h, 0–20 µM, read-out: IC50 ± S.D. H460 10 h
[14] = 24 h, 0–20 µM, read-out: IC50 ± S.D. H460 24 h
[15] = 72 h, read-out: IC50 ± S.D. H460

| Structure (SMILES) | IC50 [1] [nM] | Mode of cell death (apoptosis / accidental necrosis) by Hoechst 33342/PI staining [2] | IC50 [3] [nM] | Mode of cell death by annexin V-FITC/PI flow cytometric analysis [4] | Mode of cell death (apoptosis / accidental necrosis) by Hoechst 33342/PI staining [5] | Mode of cell death by annexin V-FITC/PI flow cytometric analysis [6] | IC50 [7, 10] [nM] | IC50 [7, 11] [nM] | IC50 [7, 12] [nM] | IC50 [8, 13] [nM] | IC50 [8, 14] [nM] | IC50 [8, 15] [nM] | IC50 [9] [nM] |
| --- | --- | --- | --- | --- | --- | --- | --- | --- | --- | --- | --- | --- | --- |
| C/C=C(/C)C(=O)OC[C@H]1C2=C(C[C@H]3[C@H]4C5=C(C[C@@H]([C@H](C#N)N13)N4C)C(=O)C(C)=C(OC)C5=O)C(=O)C(C)=C(OC)C2=O [Compound 1, Renieramycin M] | 7.07 ± 1.5 | unwanted necrosis was observed in a dosed-dependent manner | 8.01 ± 0.53 | necrotic cell death in both H292 and H460 cell lines in conjugation with late apoptosis | induced both apoptosis and accidental necrosis | necrotic cell death in both H292 and H460 cell lines in conjugation with late apoptosis | 4920 ± 3140 | 3240 ± 800 | 34.4 ± 1.7 | 12000 ± 2730 | 4130 ± 1000 | 35.6 ± 1.82 | 75 ± 9.77 |
| C/C=C(/C)C(=O)OC[C@H]1c2c(c(OC(=O)CC)c(C)c3c2OCO3)C[C@H]2[C@H]3C4=C(C[C@@H]([C@H](C#N)N12)N3C)C(=O)C(C)=C(OC)C4=O [Compound 3b, 5-O-(3-propanoyl) ester of renieramycin T] | 23.6 ± 0.65 | induced apoptosis with minimal necrosis | 33.7 ± 9.43 | early apoptosis with minimal necrosis | morphological apoptosis with no detectable necrotic cells | early apoptosis with minimal necrosis | 17600 ± 6580 | 4140 ± 840 | 33.4 ± 0.87 | 18800 ± 400 | 7320 ± 520 | 33.9 ± 1.95 | 90.2 ± 9.49 |
